Experimental data reported in PubChem BioAssay (NCI).
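The concentration for 50% growth inhibition is given as GI50. TGI: total growth inhibition.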

Experiments:
Assay in all cases: NCI tumour cell line growth inhibition, 384-well format
HL-60(TB) leukemia = system: HL-60(TB) leukemia
NCI-H522 lung = system: NCI-H522 lung
CAKI-1 renal = system: CAKI-1 renal
SW-620 colon = system: SW-620 colon
UACC-62 melanoma = system: UACC-62 melanoma
SK-MEL-2 melanoma = system: SK-MEL-2 melanoma
M14 melanoma = system: M14 melanoma
NCI-H322M lung = system: NCI-H322M lung
UO-31 renal = system: UO-31 renal
SN12C renal = system: SN12C renal
HCT-116 colon = system: HCT-116 colon
SK-MEL-5 melanoma = system: SK-MEL-5 melanoma
MCF7 breast = system: MCF7 breast
MDA-MB-231 breast = system: MDA-MB-231 breast
SR leukemia = system: SR leukemia
HOP-62 NSCLC = system: HOP-62 NSCLC
LOX IMVI melanoma = system: LOX IMVI melanoma
SK-OV-3 ovarian = system: SK-OV-3 ovarian
MDA-MB-435 melanoma = system: MDA-MB-435 melanoma
MOLT-4 leukemia = system: MOLT-4 leukemia
RXF 393 renal = system: RXF 393 renal
HS 578T breast = system: HS 578T breast
MDA-MB-468 breast = system: MDA-MB-468 breast
SNB-19 CNS = system: SNB-19 CNS
RPMI-8226 leukemia = system: RPMI-8226 leukemia
786-0 renal = system: 786-0 renal
BT-549 breast = system: BT-549 breast
OVCAR-5 ovarian = system: OVCAR-5 ovarian
IGROV1 ovarian = system: IGROV1 ovarian
EKVX NSCLC = system: EKVX NSCLC
HT29 colon = system: HT29 colon
TK-10 renal = system: TK-10 renal
A498 renal = system: A498 renal
HCC-2998 colon = system: HCC-2998 colon
K-562 leukemia = system: K-562 leukemia
A549 NSCLC = system: A549 NSCLC
T-47D breast = system: T-47D breast
NCI-H460 NSCLC = system: NCI-H460 NSCLC
HOP-92 NSCLC = system: HOP-92 NSCLC
NCI-H23 lung = system: NCI-H23 lung
SNB-75 CNS = system: SNB-75 CNS
COLO 205 colon = system: COLO 205 colon
SF-268 CNS = system: SF-268 CNS
U251 glioblastoma = system: U251 glioblastoma
SF-295 CNS = system: SF-295 CNS
HCT-15 colon = system: HCT-15 colon
UACC-257 melanoma = system: UACC-257 melanoma
DU-145 prostate = system: DU-145 prostate
NCI-H226 lung = system: NCI-H226 lung
SF-539 CNS = system: SF-539 CNS
CCRF-CEM leukemia = system: CCRF-CEM leukemia
SK-MEL-28 melanoma = system: SK-MEL-28 melanoma
OVCAR-4 ovarian = system: OVCAR-4 ovarian
KM12 colon = system: KM12 colon
NCI/ADR-RES ovarian = system: NCI/ADR-RES ovarian
PC-3 prostate = system: PC-3 prostate
MALME-3M melanoma = system: MALME-3M melanoma
ACHN renal = system: ACHN renal
OVCAR-3 ovarian = system: OVCAR-3 ovarian

CCCCc1nc2cc(/C=C/C(=O)NO)ccc2n1CCN(CC)CC
GI50 (HL-60(TB) leukemia): 144 nM | TGI (HL-60(TB) leukemia): 280 nM | GI50 (NCI-H522 lung): 34.3 nM | TGI (NCI-H522 lung): 247 nM | GI50 (CAKI-1 renal): 206 nM | TGI (CAKI-1 renal): 709 nM | GI50 (SW-620 colon): 166 nM | TGI (SW-620 colon): 334 nM | GI50 (UACC-62 melanoma): 83.4 nM | TGI (UACC-62 melanoma): 235 nM | GI50 (SK-MEL-2 melanoma): 169 nM | TGI (SK-MEL-2 melanoma): 339 nM | GI50 (M14 melanoma): 358 nM | TGI (M14 melanoma): 1710 nM | GI50 (NCI-H322M lung): 206 nM | TGI (NCI-H322M lung): 1140 nM | GI50 (UO-31 renal): 82.9 nM | TGI (UO-31 renal): 1520 nM | GI50 (SN12C renal): 286 nM | TGI (SN12C renal): 1290 nM | GI50 (HCT-116 colon): 125 nM | TGI (HCT-116 colon): 377 nM | GI50 (SK-MEL-5 melanoma): 129 nM | TGI (SK-MEL-5 melanoma): 290 nM | GI50 (MCF7 breast): 185 nM | TGI (MCF7 breast): 1130 nM | GI50 (MDA-MB-231 breast): 187 nM | TGI (MDA-MB-231 breast): 613 nM | GI50 (SR leukemia): < 10 nM | TGI (SR leukemia): 107 nM | GI50 (HOP-62 NSCLC): 250 nM | TGI (HOP-62 NSCLC): 1640 nM | GI50 (LOX IMVI melanoma): 203 nM | TGI (LOX IMVI melanoma): 588 nM | GI50 (SK-OV-3 ovarian): 239 nM | TGI (SK-OV-3 ovarian): 911 nM | GI50 (MDA-MB-435 melanoma): 226 nM | TGI (MDA-MB-435 melanoma): 616 nM | GI50 (MOLT-4 leukemia): 30.9 nM | TGI (MOLT-4 leukemia): 197 nM | GI50 (RXF 393 renal): < 10 nM | TGI (RXF 393 renal): 237 nM | GI50 (HS 578T breast): 125 nM | TGI (HS 578T breast): 317 nM | GI50 (MDA-MB-468 breast): 134 nM | TGI (MDA-MB-468 breast): 356 nM | GI50 (SNB-19 CNS): 511 nM | TGI (SNB-19 CNS): 1980 nM | GI50 (RPMI-8226 leukemia): < 10 nM | TGI (RPMI-8226 leukemia): 17 nM | GI50 ([…]-0 renal): 317 nM | TGI (786-0 renal): 2000 nM | GI50 (BT-549 breast): 230 nM | TGI (BT-549 breast): 1160 nM | GI50 (OVCAR-5 ovarian): 119 nM | TGI (OVCAR-5 ovarian): 484 nM | GI50 (IGROV1 ovarian): 119 nM | TGI (IGROV1 ovarian): 539 nM | GI50 (EKVX NSCLC): 649 nM | TGI (EKVX NSCLC): 4320 nM | GI50 (HT29 colon): 203 nM | TGI (HT29 colon): 809 nM | GI50 (TK-10 renal): 258 nM | TGI (TK-10 renal): 948 nM | GI50 (A498 renal): 298 nM | TGI (A498 renal): 1070 nM | GI50 (HCC-2998 colon): 106 nM | TGI (HCC-2998 colon): 414 nM | GI50 (K-562 leukemia): 17.5 nM | TGI (K-562 leukemia): 205 nM | GI50 (A549 NSCLC): 321 nM | TGI (A549 NSCLC): 1270 nM | GI50 (T-47D breast): 136 nM | TGI (T-47D breast): 310 nM | GI50 (NCI-H460 NSCLC): 235 nM | TGI (NCI-H460 NSCLC): 1320 nM | GI50 (HOP-92 NSCLC): 176 nM | TGI (HOP-92 NSCLC): 518 nM | GI50 (NCI-H23 lung): 296 nM | TGI (NCI-H23 lung): 1440 nM | GI50 (SNB-75 CNS): 119 nM | TGI (SNB-75 CNS): 1630 nM | GI50 (COLO 205 colon): 178 nM | TGI (COLO 205 colon): 419 nM | GI50 (SF-268 CNS): 174 nM | TGI (SF-268 CNS): 602 nM | GI50 (U251 glioblastoma): 174 nM | TGI (U251 glioblastoma): 503 nM | GI50 (SF-295 CNS): 186 nM | TGI (SF-295 CNS): 397 nM | GI50 (HCT-15 colon): 483 nM | TGI (HCT-15 colon): 2110 nM | GI50 (UACC-257 melanoma): 178 nM | TGI (UACC-257 melanoma): 561 nM | GI50 (DU-145 prostate): 120 nM | TGI (DU-145 prostate): 375 nM | GI50 (NCI-H226 lung): 697 nM | TGI (NCI-H226 lung): 2100 nM | GI50 (SF-539 CNS): 415 nM | TGI (SF-539 CNS): 2480 nM | GI50 (CCRF-CEM leukemia): 62.3 nM | TGI (CCRF-CEM leukemia): 206 nM | GI50 (SK-MEL-28 melanoma): 179 nM | TGI (SK-MEL-28 melanoma): 465 nM | GI50 (OVCAR-4 ovarian): 392 nM | TGI (OVCAR-4 ovarian): 1950 nM | GI50 (KM12 colon): 280 nM | TGI (KM12 colon): 1420 nM | GI50 (NCI/ADR-RES ovarian): 489 nM | TGI (NCI/ADR-RES ovarian): 2330 nM | GI50 (PC-3 prostate): 185 nM | TGI (PC-3 prostate): 689 nM | GI50 (MALME-3M melanoma): 130 nM | TGI (MALME-3M melanoma): 402 nM | GI50 (ACHN renal): 221 nM | TGI (ACHN renal): 955 nM | GI50 (OVCAR-3 ovarian): 181 nM | TGI (OVCAR-3 ovarian): 974 nM
